Measured values reported in article PMC6364417, “Kinase inhibitor library screening identifies synergistic drug combinations effective in sensitive and resistant melanoma cells” (Journal of Experimental & Clinical Cancer Research : CR, 2019).

How the values were obtained:
Test in all cases: Kinase inhibitor library screening, PrestoBlue cell viability, 1 or 10 μM, 72 h
501Mel cells (parental) = settings: 72 h
Procedure, shortened: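 Treatment: 72 h with inhibitor. Detection: PrestoBlue, plate reader. Output: viability as % untreated control. Replicates: duplicate minimum. Lines: parental plus Vemurafenib- or Dabrafenib-resistant derivatives.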

[1] = tested on: 501Mel-GP cells (Dabrafenib-resistant); settings: 72 h
[2] = tested on: 501Mel-XP cells (Vemurafenib-resistant); settings: 72 h
A375 cells (parental) = tested on: A375 cells (parental)
[3] = tested on: A375-GP cells (Dabrafenib-resistant)
[4] = tested on: A375-XP cells (Vemurafenib-resistant)
IGR37 cells (parental) = tested on: IGR37 cells (parental)
[5] = tested on: IGR37-GP cells (Dabrafenib-resistant)
[6] = tested on: IGR37-XP cells (Vemurafenib-resistant)
[7] = IGR37 Parental, 10μΜ, 72 h, in %

Structure (SMILES): CC(C)(C)Cn1c(N)nc2ccc(-c3[nH]c(C(C)(C)C)nc3-c3ccc(F)cc3)nc21 [LY2228820]
- Cell viability in kinase inhibitor library screening, 501Mel Parental, 1μΜ (501Mel cells (parental); 501Mel Parental, 1μΜ, in %): 95.6
- Cell viability in kinase inhibitor library screening, 501Mel Parental, 10μΜ (501Mel cells (parental); 501Mel Parental, 10μΜ, in %): 91.9
- Cell viability in kinase inhibitor library screening, 501Mel GP, 1μΜ ([1]; 501Mel GP, 1μΜ, in %): 108.2
- Cell viability in kinase inhibitor library screening, 501Mel XP, 1μΜ ([2]; 501Mel XP, 1μΜ, in %): 97.0
- Cell viability in kinase inhibitor library screening, 501Mel XP, 10μΜ ([2]; 501Mel XP, 10μΜ, in %): 82.4
- Cell viability in kinase inhibitor library screening, A375 Parental, 10μΜ (A375 cells (parental); A375 Parental, 10μΜ, 72 h): 91.0
- Cell viability in kinase inhibitor library screening, A375 Parental, 1μΜ (A375 cells (parental); A375 Parental, 1μΜ, 72 h): 105.7
- Cell viability in kinase inhibitor library screening, A375 GP, 1μΜ ([3]; A375 GP, 1μΜ, 72 h): 105.3
- Cell viability in kinase inhibitor library screening, A375 GP, 10μΜ ([3]; A375 GP, 10μΜ, 72 h): 79.1
- Cell viability in kinase inhibitor library screening, A375 XP, 1μΜ ([4]; A375 XP, 1μΜ, 72 h): 100.0
- Cell viability in kinase inhibitor library screening, A375 XP, 10μΜ ([4]; A375 XP, 10μΜ, 72 h): 84.7
- Cell viability in kinase inhibitor library screening, IGR37 Parental, 10μΜ (IGR37 cells (parental); [7]): 98.8
- Cell viability in kinase inhibitor library screening, IGR37 GP, 10μΜ ([5]; IGR37 GP, 10μΜ, 72 h): 82.8%
- Cell viability in kinase inhibitor library screening, IGR37 GP, 1μΜ ([5]; IGR37 GP, 1μΜ, 72 h, in %): 90.6
- Cell viability in kinase inhibitor library screening, IGR37 XP, 10μΜ ([6]; IGR37 XP, 10μΜ, 72 h): 38.4%
- Cell viability in kinase inhibitor library screening, IGR37 XP, 1μΜ ([6]; IGR37 XP, 1μΜ, 72 h, in %): 91.6

Structure (SMILES): Cc1cnc(NC(=O)Nc2cc(Br)c(C)cc2OC[C@@H]2CNCCO2)cn1 [LY2603618 (IC-83)]
- cell viability (kinase inhibitor library screening) (501Mel cells (parental); 501Mel Parental, 1μΜ): 84.2%
- cell viability (kinase inhibitor library screening) (501Mel cells (parental); 501Mel Parental, 10μΜ): 2.1%
- cell viability (kinase inhibitor library screening) ([1]; 501Mel GP, 1μΜ): 91.7%
- cell viability (kinase inhibitor library screening) ([1]; 501Mel GP, 10μΜ): 4.4%
- cell viability (kinase inhibitor library screening) ([2]; 501Mel XP, 1μΜ): 69.5%
- cell viability (kinase inhibitor library screening) ([2]; 501Mel XP, 10μΜ): -0.8%
- cell viability (kinase inhibitor library screening) (A375 cells (parental); A375 Parental, 10μΜ, 72 h): 15.4%
- cell viability (kinase inhibitor library screening) (A375 cells (parental); A375 Parental, 1μΜ, 72 h): 86.3%
- cell viability (kinase inhibitor library screening) ([3]; A375 GP, 10μΜ, 72 h): 11.5%
- cell viability (kinase inhibitor library screening) ([4]; A375 XP, 1μΜ, 72 h): 87.2%
- cell viability (kinase inhibitor library screening) ([4]; A375 XP, 10μΜ, 72 h): 15.7%
- cell viability (kinase inhibitor library screening) (IGR37 cells (parental); IGR37 Parental, 1μΜ, 72 h): 81.7%
- cell viability (kinase inhibitor library screening) (IGR37 cells (parental); IGR37 Parental, 10μΜ, 72 h): 37.5%
- cell viability (kinase inhibitor library screening) ([5]; IGR37 GP, 1μΜ, 72 h): 73.8%
- cell viability (kinase inhibitor library screening) ([5]; IGR37 GP, 10μΜ, 72 h): 67.9%
- cell viability (kinase inhibitor library screening) ([6]; IGR37 XP, 1μΜ, 72 h): 52.7%
- cell viability (kinase inhibitor library screening) ([6]; IGR37 XP, 10μΜ, 72 h): 26.7%

Structure (SMILES): Cc1cc(Nc2cc(CN3CCOCC3)c3nc(C)c(Cc4ccc(Cl)cc4F)n3n2)n[nH]1 [LY2784544]
- viability at 1 µM (501Mel cells (parental); Homo sapiens, read-out: cell viability, 501Mel Parental, 1μΜ): 89.9%
- viability at 10 µM (501Mel cells (parental); Homo sapiens, read-out: cell viability, 501Mel Parental, 10μΜ): 67.3%
- viability at 1 µM ([1]; Homo sapiens, read-out: cell viability, 501Mel GP, 1μΜ): 99.1%
- viability at 10 µM ([1]; Homo sapiens, read-out: cell viability, 501Mel GP, 10μΜ): 49%
- viability at 1 µM ([2]; Homo sapiens, read-out: cell viability, 501Mel XP, 1μΜ): 87.1%
- viability at 10 µM ([2]; Homo sapiens, read-out: cell viability, 501Mel XP, 10μΜ): 27.9%
- viability at 1 µM (A375 cells (parental); Homo sapiens, A-375, 72 h, read-out: cell viability, A375 Parental, 1μΜ): 94.9%
- viability at 10 µM (A375 cells (parental); Homo sapiens, A-375, 72 h, read-out: cell viability, A375 Parental, 10μΜ): 28.1%
- viability at 1 µM ([3]; Homo sapiens, A-375, 72 h, read-out: cell viability, A375 GP, 1μΜ): 101%
- viability at 10 µM ([3]; Homo sapiens, A-375, 72 h, read-out: cell viability, A375 GP, 10μΜ): 26.9%
- viability at 1 µM ([4]; Homo sapiens, A-375, 72 h, read-out: cell viability, A375 XP, 1μΜ): 102%
- viability at 10 µM ([4]; Homo sapiens, A-375, 72 h, read-out: cell viability, A375 XP, 10μΜ): 35.9%
- viability at 1 µM (IGR37 cells (parental); Homo sapiens, IGR-37, 72 h, read-out: cell viability, IGR37 Parental, 1μΜ): 99.2%
- viability at 10 µM (IGR37 cells (parental); Homo sapiens, IGR-37, 72 h, read-out: cell viability, IGR37 Parental, 10μΜ): 87%
- viability at 1 µM ([5]; Homo sapiens, IGR-37, 72 h, read-out: cell viability, IGR37 GP, 1μΜ): 90.3%
- viability at 10 µM ([5]; Homo sapiens, IGR-37, 72 h, read-out: cell viability, IGR37 GP, 10μΜ): 53.2%
- viability at 1 µM ([6]; Homo sapiens, IGR-37, 72 h, read-out: cell viability, IGR37 XP, 1μΜ): 91.6%
- viability at 10 µM ([6]; Homo sapiens, IGR-37, 72 h, read-out: cell viability, IGR37 XP, 10μΜ): 17.9%

Structure (SMILES): CS(=O)(=O)CCNCc1ccc(-c2ccc3ncnc(Nc4ccc(OCc5cccc(F)c5)c(Cl)c4)c3c2)o1.Cc1ccc(S(=O)(=O)O)cc1.Cc1ccc(S(=O)(=O)O)cc1 [Lapatinib Ditosylate (Tykerb)]
- cell viability, 501Mel Parental, 10μΜ (501Mel cells (parental); 501Mel Parental, 10μΜ, in %): 33.4
- cell viability, 501Mel GP, 10μΜ ([1]; 501Mel GP, 10μΜ, in %): 78.0
- cell viability, 501Mel XP, 1μΜ ([2]; 501Mel XP, 1μΜ, in %): 94.1
- cell viability, 501Mel XP, 10μΜ ([2]; 501Mel XP, 10μΜ, in %): -0.129
- cell viability, A375 Parental, 10μΜ (A375 cells (parental); A375 Parental, 10μΜ, 72 h, in %): 78.4
- cell viability, A375 GP, 10μΜ ([3]; A375 GP, 10μΜ, 72 h, in %): 81.7
- cell viability, A375 XP, 1μΜ ([4]; A375 XP, 1μΜ, 72 h, in %): 114.8
- cell viability, A375 XP, 10μΜ ([4]; A375 XP, 10μΜ, 72 h, in %): 72.3
- cell viability, IGR37 Parental, 10μΜ (IGR37 cells (parental); [7]): 92.3
- cell viability, IGR37 GP, 10μΜ ([5]; IGR37 GP, 10μΜ, 72 h): 14%
- cell viability, IGR37 XP, 10μΜ ([6]; IGR37 XP, 10μΜ, 72 h): 1.6%
